Source: patent US20030022826A1, “Use of synthetic peptides to induce tolerance to pathogenic T and B cell epitopes of autoantigens or infectious agents” (priority 1987, published 2003)
Marks after values point to notes of the source that are not given here.

Tests used:
human JY B cells = assay: Peptide binding to human cells, flow cytometry with anti-gp120 mab 0.5beta; format: cell-based; settings: mean channel fluoresence, peptide 10 ug/ml
Experimental: Anti-gp120 momoclonal antibody was 0.5beta from the NIAID AIDS Research and Reference Reagent Program (Matsushita et al J. Virol. 62:2107, 1988). […] The amount of fluoresence was determined on a flow cytometer and fluoresence brightness was expressed as MFC=mean channel fluoresence.

[1] = system: Th-B peptide, T1-SP10IIIB(A); assay: PBMC 3H-thymidine incorporation response to HIV Th-B peptide in immunized chimpanzees; format: in vivo, chimpanzee; settings: 7 day tritiated thymidine incorporation assays
Source text: Acpm=experimental cpm—control cpm.

JY B cells = assay: Peptide entry into cells, intracytoplasmic fluorescence of acetone-fixed cells; format: cell-based, human; settings: for % Intracytoplasmic Positive: peptide 10 μg/ml, 21 hours at 37 degrees C
Experimental: Cells were incubated as descirbed in Table 13. After 21 hours at 37 degrees C., cytocentrifuge preparations of cells were prepared, acetone fixed, and reacted either with control mab P3x63 AgS or with anti-qp120 mab 0.5beta. Slides were read for either faint or bright intracytoplasmic fluoresence on a fluoresence microscope.

[2] = system: Th-B peptide, T1-SP10IIIB; assay: Endpoint ELISA anti-peptide antibody titers in chimpanzees immunized with HIV env synthetic peptides; format: in vivo, chimpanzee; settings: for immunogenicity in chimpanzees (antibody response): low (0.1 mg/kg) or high (0.5 mg/kg) doses in IFA
Experimental: Immunizations: For goats, 3 mg of peptide were injected intramuscularly in each gluteal region in complete Freund's adjuvant (CFA) (1st dose), then incomplete Freund's adjuvant (IFA) (subsequent doses). […]
When neither peptide design induced neutralizing anti-HIVIIIB antibodies, the peptide doses were increased to approximately 0.5 mg/kg (30 mg/animal) and the right-hand side neutralizing sequence of HIVIIIB gp120 V3 loop (the (A) region) (Hart et al, Proc. Natl. Acad. Sci. USA 88:9448; Rusche et al Proc. Natl. Acad. Sci. USA 85:3198)) (Table 8) was added to the Th-B peptide to enhance the ability of this peptide to induce anti-HIVIIIB neutralizing antibodies. After 3 monthly injections with either ˜0.5 mg/kg (30 mg) Th-B or F-Th-B peptide, the animals were rested for 6 months, and then reimmunized with either F-Th-B or Th-B with sequences from HIVIIIB, or with the Th-B peptide containing HIV env gp120 V3 sequences from the HIVMN isolate.

HIVIIIB = assay: Anti-HIVIIIB neutralizing antibodies in immunized goats (reverse transcriptase inhibition); format: in vivo, HIV; settings: 3 mg, CFA then IFA, after the fourth immunization
Experimental: FIG. 15. […] Goat 102A was immunized with 3 mg of the F-Th-B peptide, F-T1-SP10IIIB(A) and goat 104A was immunized with the HIVIIIB Th-B peptide, T1-SP10IIIB. Immunizations were in CFA (first dose) and IFA (doses 2-4). Neutralizing titers are titers at which reverse transcriptase production was inhibited by 90% or greater.
Immunizations: For goats, 3 mg of peptide were injected intramuscularly in each gluteal region in complete Freund's adjuvant (CFA) (1st dose), then incomplete Freund's adjuvant (IFA) (subsequent doses). For immunization of chimpanzees, varying doses of peptides were injected IM in IFA in a total volume of 4 cc, with 1 cc injected into right and left upper arms and thighs.
(§1) HIV Neutralization Assays: The ability of chimpanzee or goat serum antibodies to neutralize HIV was determined in syncytium inhibition assay and reverse transcriptase inhibition assay as previously described (Palker et al, J. Immunol. 142:3612 (1989); Palker et al, Proc. Natl. Acad. Sci. USA 85:1932 (1988)). Sera were heat inactivated (30 min, 56° C.) prior to each assay.

HIV LAI/IIIB [3] = assay: Reverse transcriptase inhibition assay with sera of immunized chimpanzees, HIV LAI/IIIB; format: in vivo
Experimental: as §1

HIV LAI/IIIB [4] = assay: Syncytium inhibition assay with sera of immunized chimpanzees, HIV LAI/IIIB; format: in vivo
Experimental: as §1

HIV MN [5] = assay: Reverse transcriptase inhibition assay with sera of immunized chimpanzees, HIV MN; format: in vivo
Experimental: as §1

HIV MN [6] = assay: Syncytium inhibition assay with sera of immunized chimpanzees, HIV MN; format: in vivo
Experimental: as §1

[7] = chimpanzee 1045 serum, Month 19, prior F-Th-B(IIIB)
[8] = chimpanzee 1045 serum, Month 20, prior F-Th-B(IIIB)
[9] = chimpanzee 1070 serum, Month 18, prior F-Th-B(IIIB)
[10] = chimpanzee 1070 serum, Month 19, prior F-Th-B(IIIB)
[11] = chimpanzee 1070 serum, Month 20, prior F-Th-B(IIIB)

KQIINMWQEVGKAMYACTRPNNNTRKSIRIQRGPGRAFVTI [T1-SP10IIIB(A), HIVIIIB Th-B peptide with (A) region]
MFC 4 Degrees C., 1 Hr. (human JY B cells; 4 degrees C, 1 hour): 14.7
MFC 37 Degrees C., 22 Hr. (human JY B cells; 37 degrees C, 22 Hr.): 14.0
PBMC proliferation to T1-SP10IIIB(A) peptide [1]: induced high levels of proliferation
% Intracytoplasmic Positive (JY B cells; Anti-gp120 mab 0.5beta): 0%
% Intracytoplasmic Positive (JY B cells; Control antibody (mab P3x63 AgS)): 0%
immunogenicity in chimpanzees (antibody response) [2]: potent immunogens

KQIINMWQEVGKAMYACTRPNNNTRKSIRIQRGPG [Peptide T1-SP10IIIB, HIVIIIB Th-B peptide]
induction of serum anti-HIV neutralizing antibodies (HIVIIIB): induced anti-HIV neutralizing antibodies in goats
PBMC proliferation to T1-SP10IIIB(A) peptide [1]: induced high levels of proliferation
immunogenicity in chimpanzees (antibody response) [2]: potent immunogens

KQIINMWQEVGKAMYACTRPNYNKRKRIHIGPGRAFYTTK [T1-SP10MN(A), HIVMN Th-B peptide]
Reciprocal Titer in RT Inhibition Assay (HIV LAI/IIIB [3]; [7]): 23
Reciprocal Titer in RT Inhibition Assay (HIV LAI/IIIB [3]; [8]): 22
Reciprocal Titer in RT Inhibition Assay (HIV LAI/IIIB [3]; [9]): 92
Reciprocal Titer in RT Inhibition Assay (HIV LAI/IIIB [3]; [10]): 100
Reciprocal Titer in RT Inhibition Assay (HIV LAI/IIIB [3]; [11]): 86
Presence of Neutralization in Syncytium Inhibition Assay (HIV LAI/IIIB [4]; [7]): +/− (≧49% and <80% inhibition of syncytia.)
Presence of Neutralization in Syncytium Inhibition Assay (HIV LAI/IIIB [4]; [8]): − (<48% inhibition of syncytia.)
Presence of Neutralization in Syncytium Inhibition Assay (HIV LAI/IIIB [4]; [9]): +/− (≧49% and <80% inhibition of syncytia.)
Presence of Neutralization in Syncytium Inhibition Assay (HIV LAI/IIIB [4]; [10]): + (≧80% inhibition of syncytia, titer 1:10.)
Presence of Neutralization in Syncytium Inhibition Assay (HIV LAI/IIIB [4]; [11]): +/− (≧49% and <80% inhibition of syncytia.)
detection of peptide inside the JY B cells (JY B cells; 10 ug/ml of peptide for 21 hours at 37 degrees C): could not be detected
Reciprocal Titer in RT Inhibition Assay (HIV MN [5]; chimpanzee 884 serum, Month 18, prior Th-B(IIIB)): 20
Reciprocal Titer in RT Inhibition Assay (HIV MN [5]; chimpanzee 884 serum, Month 20, prior Th-B(IIIB)): 24
Reciprocal Titer in RT Inhibition Assay (HIV MN [5]; chimpanzee 1045 serum, Month 18, prior F-Th-B(IIIB), Th-B(IIIB)): 23
Reciprocal Titer in RT Inhibition Assay (HIV MN [5]; chimpanzee 1045 serum, Month 19, prior F-Th-B(IIIB), Th-B(IIIB)): 23
Reciprocal Titer in RT Inhibition Assay (HIV MN [5]; chimpanzee 1045 serum, Month 20, prior F-Th-B(IIIB), Th-B(IIIB)): 24
Reciprocal Titer in RT Inhibition Assay (HIV MN [5]; chimpanzee 1070 serum, Month 18, prior F-Th-B(IIIB), Th-B(IIIB)): 22
Reciprocal Titer in RT Inhibition Assay (HIV MN [5]; chimpanzee 1070 serum, Month 19, prior F-Th-B(IIIB), Th-B(IIIB)): 96
Reciprocal Titer in RT Inhibition Assay (HIV MN [5]; chimpanzee 1070 serum, Month 20, prior F-Th-B(IIIB), Th-B(IIIB)): 350
Presence of Neutralization in Syncytium Inhibition Assay (HIV MN [6]; chimpanzee 1045 serum, Month 18, prior F-Th-B(IIIB)): − (<48% inhibition of syncytia.)
Presence of Neutralization in Syncytium Inhibition Assay (HIV MN [6]; [7]): − (<48% inhibition of syncytia.)
Presence of Neutralization in Syncytium Inhibition Assay (HIV MN [6]; [8]): − (<48% inhibition of syncytia.)
Presence of Neutralization in Syncytium Inhibition Assay (HIV MN [6]; [9]): − (<48% inhibition of syncytia.)
Presence of Neutralization in Syncytium Inhibition Assay (HIV MN [6]; [10]): + (≧80% inhibition of syncytia, titer 1:10.)
Presence of Neutralization in Syncytium Inhibition Assay (HIV MN [6]; [11]): ++ (≧80% inhibition of syncytia, titer 1:20.)
Reciprocal of ELISA Titer ([2]; chimpanzee 884, month 17, after Th-B(IIIB) months 2-14): 12,800
Reciprocal of ELISA Titer ([2]; chimpanzee 884, month 18, after Th-B(IIIB) months 2-14): 25,600
Reciprocal of ELISA Titer ([2]; chimpanzee 884, month 19, after Th-B(IIIB) months 2-14): 25,600
Reciprocal of ELISA Titer ([2]; chimpanzee 884, month 20, after Th-B(IIIB) months 2-14): 51,200
Reciprocal of ELISA Titer ([2]; chimpanzee 1028, month 17, after Th-B(IIIB) months 2-14, injections in PBS alone): 3,200
Reciprocal of ELISA Titer ([2]; chimpanzee 1028, month 18, after Th-B(IIIB) months 2-14, injections in PBS alone): 6,400
Reciprocal of ELISA Titer ([2]; chimpanzee 1028, month 19, after Th-B(IIIB) months 2-14, injections in PBS alone): 1,600
Reciprocal of ELISA Titer ([2]; chimpanzee 1028, month 20, after Th-B(IIIB) months 2-14, injections in PBS alone): 6,400
Reciprocal of ELISA Titer ([2]; chimpanzee 1045, month 17, after F-Th-B(IIIB) months 2-14 and Th-B(IIIB) month 16): 1,600
Reciprocal of ELISA Titer ([2]; chimpanzee 1045, month 18, after F-Th-B(IIIB) months 2-14 and Th-B(IIIB) month 16): 6,400
Reciprocal of ELISA Titer ([2]; chimpanzee 1045, month 19, after F-Th-B(IIIB) months 2-14 and Th-B(IIIB) month 16): 6,400
Reciprocal of ELISA Titer ([2]; chimpanzee 1045, month 20, after F-Th-B(IIIB) months 2-14 and Th-B(IIIB) month 16): 51,200
Reciprocal of ELISA Titer ([2]; chimpanzee 1070, month 17, after F-Th-B(IIIB) months 2-14 and Th-B(IIIB) month 16): 3,200
Reciprocal of ELISA Titer ([2]; chimpanzee 1070, month 18, after F-Th-B(IIIB) months 2-14 and Th-B(IIIB) month 16): 25,600
Reciprocal of ELISA Titer ([2]; chimpanzee 1070, month 19, after F-Th-B(IIIB) months 2-14 and Th-B(IIIB) month 16): 51,200
Reciprocal of ELISA Titer ([2]; chimpanzee 1070, month 20 (month 20 immunization not given), after F-Th-B(IIIB) months 2-14 and Th-B(IIIB) month 16): 102,400#
